# Experimental data from PubChem BioAssay (NCI).
#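 The compound was tested at five concentrations on cells cultured in 96-well plates, with a 48-hour exposure period. GI50 marks 50% less growth. TGI: concentration producing complete growth inhibition.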
# Legend:
# Experiment in all cases: NCI anticancer screen, dose series, 48 h
# [1] = system: RXF 393 renal
# [2] = system: MDA-MB-435
# [3] = system: SK-OV-3 ovarian
# [4] = system: SK-MEL-5 melanoma
# [5] = system: A549 NSCLC
# [6] = system: A498 renal
# [7] = system: OVCAR-8 ovarian
# [8] = system: M14 melanoma
# [9] = system: U251 CNS
# [10] = system: MDA-MB-231 breast
SMILES,TGI [1],TGI [2],TGI [3],TGI [4],TGI [5],TGI [6],TGI [7],TGI [8],TGI [9],TGI [10],GI50 [1],GI50 [2],GI50 [3],GI50 [4],GI50 [5],GI50 [6],GI50 [7],GI50 [8],GI50 [9],GI50 [10]
CCCCCCCCOc1ccc(/C=C/C2=[N+](CCO)CCO2)cc1,7.91 µM,14.5 µM,11.9 µM,7.04 µM,10.7 µM,11.7 µM,12.3 µM,20 µM,8.13 µM,11.4 µM,–,–,–,–,–,–,–,–,–,–
C[C@H](C1CC2(C)OC2(C)C(=O)O1)[C@H]1CC[C@H]2[C@@H]3[C@@H]4O[C@@H]4[C@@]4(O)CC=CC(=O)[C@]4(C)[C@H]3CC[C@]12C (some centres not stated),23.9 µM,> 50 µM,> 50 µM,> 50 µM,> 50 µM,> 50 µM,> 50 µM,> 50 µM,> 50 µM,> 50 µM,–,–,–,–,–,–,–,–,–,–
COC(=O)Nc1nc2ccc(NC(=O)c3ccc(I)cc3)cc2[nH]1,> 100 µM,> 100 µM,> 100 µM,> 100 µM,> 100 µM,> 100 µM,> 100 µM,> 100 µM,> 100 µM,> 100 µM,–,–,–,–,–,–,–,–,–,–
O=c1[nH]nc(Cc2ccc(Cl)cc2)n1/N=C/c1ccc([N+](=O)[O-])o1,4.8 µM,11.9 µM,> 36.3 µM,> 38.5 µM,> 35.4 µM,14.1 µM,> 32.2 µM,5.68 µM,> 34.4 µM,> 34.7 µM,–,–,–,–,–,–,–,–,–,–
CC(=O)OCC1OC(n2c(C)c(C)c(C)c(C#N)c2=S)C(OC(C)=O)C(OC(C)=O)C1OC(C)=O (configuration not stated),57.6 µM,> 100 µM,80.9 µM,> 100 µM,> 100 µM,> 100 µM,> 100 µM,> 100 µM,> 100 µM,> 100 µM,–,–,–,–,–,–,–,–,–,–
Cc1cc(S(=O)(=O)/N=C(/NN)Nc2ccc(Cl)cc2)c(S)cc1Cl,78.8 µM,25.6 µM,49.5 µM,19.2 µM,23.8 µM,35.4 µM,27.3 µM,34.6 µM,21.7 µM,84.2 µM,–,–,–,–,–,–,–,–,–,–
C#CCOC(=O)c1ccc(OC(C)=O)cc1,> 100 µM,> 100 µM,> 100 µM,> 100 µM,–,> 100 µM,> 100 µM,> 100 µM,> 100 µM,> 100 µM,–,–,–,–,–,–,–,–,–,–
Cc1c([C@H](C)[C@@H]2NC[C@@H](C)C[C@H]2O)ccc2c1C[C@H]1[C@H]2CC=C2C[C@@H](O)CC[C@@]21C,48.2 µM,26.4 µM,76.9 µM,22.9 µM,47.9 µM,33.6 µM,> 100 µM,31.4 µM,30.3 µM,35.4 µM,–,–,–,–,–,–,–,–,–,–
CC(C)=CCC[C@@H](C)C1=C(O)C(Nc2ccccc2I)=C(C)C(=O)C1=O,> 50 µM,> 75 µM,61.5 µM,23 µM,> 50.6 µM,31.5 µM,> 32.2 µM,> 58.9 µM,> 75 µM,> 75 µM,–,–,–,–,–,–,–,–,–,–
CCOC1=C(c2ccccc2)N2CCCCC2O1 (configuration not stated),37.4 µM,16.8 µM,–,4.54 µM,> 100 µM,32.2 µM,> 38.5 µM,12.1 µM,> 100 µM,> 48.5 µM,–,–,–,–,–,–,–,–,–,–
COc1ccccc1C1C(C#N)=C(N)Oc2n[nH]c(C)c21 (configuration not stated),> 100 µM,> 100 µM,> 100 µM,> 100 µM,> 100 µM,> 100 µM,> 100 µM,> 100 µM,> 100 µM,> 100 µM,> 100 µM,75.1 µM,> 100 µM,59 µM,> 100 µM,> 100 µM,> 100 µM,> 100 µM,92.9 µM,15.1 µM
OC(NN=C1CCCC1)(C(F)(F)Cl)C(F)(F)Cl,> 10 µM,> 10 µM,> 10 µM,> 10 µM,> 10 µM,> 10 µM,> 10 µM,> 10 µM,> 10 µM,> 10 µM,–,–,–,–,–,–,–,–,–,–
CN(C)CC1CCC(CN(C)C)C(=O)C1=O (configuration not stated),3.47 µM,31.7 µM,38.7 µM,30 µM,25.1 µM,31.8 µM,9.08 µM,12.5 µM,26.7 µM,19.5 µM,–,–,–,–,–,–,–,–,–,–
O=C(O)c1ccccc1C1c2ccccc2Oc2ccccc21,> 100 µM,> 100 µM,–,> 100 µM,> 100 µM,82.1 µM,> 100 µM,> 100 µM,> 100 µM,> 100 µM,–,–,–,–,–,–,–,–,–,–
